Source: ChEMBL document CHEMBL1201862, “PubChem BioAssay data set” (2004)
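In this assay, cells in 96-well plates receive the compound at five concentrations for 48 hours. Endpoints are linearly interpolated between the surrounding concentrations. GI50: concentration for 50% inhibition of growth.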 Calls of active or inactive are those of the source. Rule as the data show it: active = GI50 up to about 1.1 µM and inactive = higher.

Tests used:
Test in all cases: DTP human tumour cell line panel, 48 h
SNB-19 = test system: SNB-19
HOP-62 = test system: HOP-62
CAKI-1 = test system: CAKI-1
OVCAR-5 = test system: OVCAR-5
A549 = test system: A549
TK-10 = test system: TK-10
SR = test system: SR
OVCAR-4 = test system: OVCAR-4
LOX IMVI = test system: LOX IMVI
NCI-H23 = test system: NCI-H23
UACC-257 = test system: UACC-257
OVCAR-8 = test system: OVCAR-8
SN12C = test system: SN12C
M14 = test system: M14
SK-MEL-2 = test system: SK-MEL-2
HT-29 = test system: HT-29
EKVX = test system: EKVX
SK-OV-3 = test system: SK-OV-3

Measured: GI50

c1cc2c(cnc3cscc32)s1
inactive: SNB-19 > 100 µM | HOP-62 > 100 µM | CAKI-1 95.5 µM | OVCAR-5 > 100 µM | A549 > 100 µM | TK-10 > 100 µM | SR > 100 µM | OVCAR-4 > 100 µM | LOX IMVI > 100 µM | NCI-H23 > 100 µM | UACC-257 > 100 µM | OVCAR-8 > 100 µM | SN12C > 100 µM | M14 > 100 µM | SK-MEL-2 > 100 µM | HT-29 > 100 µM

CC1CC(c2ccc([N+](=O)[O-])cc2)=Nc2ccccc2S1 (configuration not stated)
inactive: SNB-19 16.7 µM | HOP-62 44.9 µM | CAKI-1 24.4 µM | EKVX 23.6 µM | OVCAR-5 23.9 µM | SK-OV-3 17.1 µM | A549 21.9 µM | TK-10 28.2 µM | SR 5.09 µM | OVCAR-4 16.7 µM | LOX IMVI 6.89 µM | NCI-H23 15.8 µM | UACC-257 18.7 µM | OVCAR-8 25.9 µM | SN12C 18.2 µM | M14 14.2 µM | HT-29 13.4 µM

CCOC(=O)C1=C(C)N(NC(=O)c2ccccc2)C2(O)CCCC12C(=O)OCC (configuration not stated)
inactive: SNB-19 > 100 µM | HOP-62 > 100 µM | CAKI-1 > 100 µM | EKVX > 100 µM | OVCAR-5 > 100 µM | SK-OV-3 > 100 µM | A549 > 100 µM | SR 73.3 µM | OVCAR-4 > 100 µM | LOX IMVI > 100 µM | UACC-257 > 100 µM | OVCAR-8 > 100 µM | SN12C > 100 µM | M14 > 100 µM | SK-MEL-2 > 100 µM | HT-29 > 100 µM

CC1=NN(C(=O)Cc2ccccc2)C(=O)/C1=C\C=C\c1ccccc1
inactive: SNB-19 > 100 µM | HOP-62 > 100 µM | CAKI-1 > 100 µM | EKVX > 100 µM | OVCAR-5 > 100 µM | A549 > 100 µM | TK-10 > 100 µM | SR > 100 µM | OVCAR-4 > 100 µM | LOX IMVI > 100 µM | NCI-H23 > 100 µM | UACC-257 > 100 µM | OVCAR-8 > 100 µM | SN12C > 100 µM | M14 > 100 µM | SK-MEL-2 > 100 µM | HT-29 > 100 µM

COC12CC(O)=C(C(C)=O)C(=O)C1(C)c1c(OC(C)=O)c(C)c(O)c(C(C)=O)c1O2 (configuration not stated)
inactive: SNB-19 4.98 µM | HOP-62 22.8 µM | CAKI-1 15.7 µM | EKVX 31 µM | OVCAR-5 31.9 µM | A549 9.44 µM | TK-10 25.4 µM | SR 18.5 µM | OVCAR-4 18.7 µM | LOX IMVI 10.2 µM | NCI-H23 4.86 µM | UACC-257 23.6 µM | OVCAR-8 10.8 µM | SN12C 11.6 µM | M14 22.5 µM | SK-MEL-2 19 µM | HT-29 20.5 µM

CCCCCCCCCCCC(=O)OCC1OC(n2cc(F)c(=O)[nH]c2=O)C(N)C(O)C1O (configuration not stated)
inactive: SNB-19 57.9 µM | HOP-62 > 100 µM | CAKI-1 49 µM | EKVX > 100 µM | OVCAR-5 11.5 µM | SK-OV-3 > 100 µM | A549 > 100 µM | SR 81.7 µM | OVCAR-4 > 100 µM | NCI-H23 84.7 µM | UACC-257 > 100 µM | OVCAR-8 73.5 µM | SN12C > 100 µM | M14 > 100 µM | SK-MEL-2 > 100 µM | HT-29 55.3 µM

CC1CN(C(=O)CN2CCC(CCCCN(C)C)CC2)c2ccccc2NC1=O (configuration not stated)
inactive: SNB-19 > 100 µM | HOP-62 > 100 µM | CAKI-1 90.6 µM | OVCAR-5 > 100 µM | SK-OV-3 > 100 µM | A549 > 100 µM | SR > 100 µM | OVCAR-4 > 100 µM | LOX IMVI > 100 µM | NCI-H23 > 100 µM | UACC-257 > 100 µM | SN12C > 100 µM | M14 > 100 µM | HT-29 > 100 µM

CC1(C)CCc2cc3c(cc2O1)OC(C)(C)C1c2c(ccc4c2CCC(C)(C)O4)OC31 (configuration not stated)
inactive: HOP-62 > 100 µM | CAKI-1 99.8 µM | EKVX 64.6 µM | OVCAR-5 68.4 µM | SK-OV-3 > 100 µM | A549 > 100 µM | SR > 100 µM | OVCAR-4 > 100 µM | LOX IMVI > 100 µM | NCI-H23 > 100 µM | OVCAR-8 > 100 µM | SN12C > 100 µM | M14 42.9 µM | SK-MEL-2 > 100 µM | HT-29 > 100 µM

O=C(O)CP(=S)(S)c1ccccc1 (configuration not stated)
inactive: SNB-19 > 100 µM | HOP-62 > 100 µM | CAKI-1 > 100 µM | EKVX > 100 µM | SK-OV-3 > 100 µM | A549 > 100 µM | TK-10 > 100 µM | SR > 100 µM | OVCAR-4 > 100 µM | LOX IMVI > 100 µM | NCI-H23 > 100 µM | UACC-257 > 100 µM | OVCAR-8 > 100 µM | SN12C > 100 µM | M14 > 100 µM | SK-MEL-2 > 100 µM | HT-29 > 100 µM

O=c1ccn(C2(CO)C=C(CO)C(O)C2O)c(=O)[nH]1 (configuration not stated)
inactive: SNB-19 > 25.7 µM | HOP-62 > 25.7 µM | CAKI-1 > 25.7 µM | EKVX > 25.7 µM | SK-OV-3 > 25.7 µM | A549 > 25.7 µM | TK-10 > 25.7 µM | SR > 25.7 µM | OVCAR-4 > 25.7 µM | UACC-257 > 25.7 µM | OVCAR-8 > 25.7 µM | SN12C > 25.7 µM | M14 > 25.7 µM | SK-MEL-2 > 25.7 µM

CCC1=NC(CO)[C@H](c2ccccc2)O1 (some centres not stated)
inactive: SNB-19 > 100 µM | HOP-62 > 100 µM | CAKI-1 > 100 µM | EKVX > 100 µM | OVCAR-5 > 100 µM | A549 > 100 µM | TK-10 > 100 µM | SR > 100 µM | OVCAR-4 > 100 µM | LOX IMVI > 100 µM | NCI-H23 > 100 µM | UACC-257 > 100 µM | OVCAR-8 > 100 µM | SN12C > 100 µM | SK-MEL-2 > 100 µM | HT-29 > 100 µM

COc1ccc2c([nH]c3c(O)c(-c4c(C)cc5c([nH]c6c(CC=C(C)C)c(OC)ccc65)c4O)c(C)cc32)c1CC=C(C)C [BISMURRAYAFOLINE B]
inactive: SNB-19 > 100 µM | HOP-62 > 100 µM | CAKI-1 > 100 µM | OVCAR-5 > 100 µM | SK-OV-3 > 100 µM | A549 > 100 µM | TK-10 > 100 µM | SR > 100 µM | OVCAR-4 > 100 µM | LOX IMVI > 100 µM | NCI-H23 > 100 µM | UACC-257 > 100 µM | OVCAR-8 > 100 µM | SN12C > 100 µM | M14 > 100 µM | SK-MEL-2 > 100 µM | HT-29 > 100 µM
